The text below walks through data of patent publication US20140288077A1, “SUBSTITUTED 4-PHENOXYPHENOL ANALOGS AS MODULATORS OF PROLIFERATING CELL NUCLEAR ANTIGEN ACTIVITY” (ST. JUDE CHILDREN'S RESEARCH HOSPITAL, priority 2011, published 2014).

The test deals with T1, human PCNA recombinant protein (Homo sapiens, UniProt P12004).
T1 construct: The full length human PCNA; made in house; host or cells: Escherichia coli BL21(DE3)
As to the kind of experiment: Fluorescent polarization assay: competition with 5-FAM-labeled PL peptide for PCNA. It counts as binding. The source says: To determine the binding of the disclosed compounds to the human PCNA recombinant protein, a fluorescence polarization assay was employed. The assay is based on competition between a fluorescent tracer and increasing amounts of competing compound, i.e. a disclosed compound, determined as fluorescence polarization intensity (mP). The fluorescent tracer was 5-carboxyfluorescein (5-FAM) labeled PL peptide (“FAM-PL”). […] PCNA was a recombinant protein purified using standard methods known to one skilled in the art using an expression construct obtained from Dr. Toshiki Tsurimoto, Kyusyu University, Japan.
The volumes of PCNA and FAM-PL were adjusted to ensure that the final concentration of PCNA was 200 nM and FAM-PL was 10 nM. Assays were carried out in 384 well plates in a total volume of about 20-30 μL. […] Fluorescence measurements were made immediately after dilution in the assay plate. […] FP values (P) were calculated in millipolarization units (mP),
where I∥ and I⊥ are the emission intensities recorded, respectively, in the parallel and perpendicular directions relative to the plane of excitation polarization, after background intensity correction. G-factor values (G) for the fluorescein spectral window were measured using 1 nM fluorescein.
Alternatively, the fluorescent polarization assay can be carried out as described in the following. […] Briefly, 20 μl of the assay solution was transferred into each well of a black 384-well plate using Wellmate (Matrix). […] The negative control in each plate was DMSO, whereas the positive control was unlabeled PL-peptide as a self-competitor. […] FP values were calculated in millipolarization units. All data processing was performed using in-house programs in the Pipeline Pilot (Accelrys, version 7.0.1). The quality of the primary screen was assessed by Z-prime and other screening quality metrics.

Where [1] appears, read: Table 2, inhibition of FAM-PL peptide binding to PCNA, read-out: IC50.

Read-outs that look alike come from different tables or passages of the source. No end group written: not given here.

T1 sequence (P12004 whole entry): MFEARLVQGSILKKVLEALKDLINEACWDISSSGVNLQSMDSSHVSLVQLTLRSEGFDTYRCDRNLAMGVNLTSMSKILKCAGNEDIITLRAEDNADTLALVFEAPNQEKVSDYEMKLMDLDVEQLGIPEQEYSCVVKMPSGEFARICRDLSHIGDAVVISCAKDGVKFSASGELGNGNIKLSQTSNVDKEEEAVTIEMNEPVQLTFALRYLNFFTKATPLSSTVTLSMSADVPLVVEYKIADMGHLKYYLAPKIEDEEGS

With `CN(C)C(=O)Cc1cc(I)c(Oc2ccc(O)cc2)c(I)c1` [MLAG-066-2, 2-(4-(4-hydroxyphenoxy)-3,5-diiodophenyl)-N,N-dimethylacetamide], the IC50 under setting [1] amounted to 7.5 µM.
On to `COCCCNC(=O)CCc1cc(I)c(Oc2ccc(O)cc2)c(I)c1` [MLAE-054-4, 3-(4-(4-Hydroxyphenoxy)-3,5-diiodophenyl)-N-(3-methoxypropyl)propanamide], for which the IC50 under setting [1] amounted to 5.2 µM.
Same read-out and setting: under `Oc1ccc(Oc2c(I)cc(C[C@H]3C[NH2+][Pt-2]([Cl])([Cl])[NH2+]3)cc2I)cc1` [SWUA_018, Dichloro((S)-4-(4-(2,3-diaminopropyl)-2,6-diiodophenoxy)phenol)platinum(II)] stands 0.27 µM.
Take `NCCc1cc(I)c(Oc2ccc(O)cc2)c(I)c1` [MLAG-087, 4-(4-(2-aminoethyl)-2,6-diiodophenoxy)phenol]: the IC50 came out at 0.9 µM.
For the compound `COc1ccc(NC(=O)Cc2cc(I)c(Oc3ccc(O)c(I)c3)c(I)c2)cc1` [MLAE-029-7, 2-(4-(4-Hydroxy-3-iodophenoxy)-3,5-diiodophenyl)-N-(4-methoxyphenyl)acetamide], the IC50 under setting [1] was above 50 µM.
On the same count and under the same terms, under `COc1ccc(Oc2c(I)cc(CCC(=O)N3CCCCC3)cc2I)cc1` [MLAE-039, 3-(3,5-Diiodo-4-(4-methoxyphenoxy)phenyl)-1-(piperidin-1-yl)propan-1-one] stands 9.5 µM; under `CNC(=O)Cc1cc(I)c(Oc2ccc(O)cc2)c(I)c1` [MLAG-066-1, 2-(4-(4-hydroxyphenoxy)-3,5-diiodophenyl)-N-Methylacetamide], 8.3 µM.
On the same count and under the same terms, under `O=C(Cc1cc(I)c(Oc2ccc(O)cc2)c(I)c1)N1CCOCC1` [MLAE-047, 2-(4-(4-hydroxyphenoxy)-3,5-diiodophenyl)-1-morpholinoethanone] stands 6.3 µM; under `CS(=O)(=O)NC(=O)CCc1cc(I)c(Oc2ccc(O)c(C(=O)Nc3ccccc3)c2)c(I)c1` [MLAF-012, 5-(2,6-diiodo-4-(3-(methylsulfonamido)-3-oxopropyl)phenoxy)-2-hydroxy-N-phenylbenzamide], above 50 µM; under `O=C1CN(C(=O)Cc2cc(I)c(Oc3ccc(O)cc3)c(I)c2)CCN1` [MLAE-048, 4-(2-(4-(4-Hydroxyphenoxy)-3,5-diiodophenyl)acetyl)piperazin-2-one], 9.1 µM.
On the same count and under the same terms, under `CNC(=O)CCc1cc(I)c(Oc2ccc(OC)cc2)c(I)c1` [MLAE-040, 3-(3,5-Diiodo-4-(4-methoxyphenoxy)phenyl)-N-methylpropanamide] stands 17 µM; under `Cc1noc(C)c1S(=O)(=O)N[C@H](CO)Cc1cc(I)c(Oc2ccc(O)cc2)c(I)c1` [MLAE-061, (S)—N-(1-Hydroxy-3-(4-(4-hydroxyphenoxy)-3,5-diiodophenyl)propan-2-yl)-3,5-dimethylisoxazole-4-sulfonamide], 16 µM.
For the compound `Oc1ccc(Oc2c(I)cc(C[C@H]3C[NH2+][Pt-2]([Cl])([Cl])[NH2+]3)cc2I)cc1` [dichloro((S)-4-(4-(2,3-diaminopropyl)-2,6-diiodophenoxy)phenol)platinum(II)], the IC50 (incubation time 5 min (FIGS. 15-18), read-out: IC50 in fluorescent polarization assay) was around 0.27 µM.
In the case of `COc1ccc(Oc2c(I)cc(CCC(=O)NS(C)(=O)=O)cc2I)cc1` [MLAE-036, 3-(3,5-diiodo-4-(4-methoxyphenoxy)phenyl)-N-(methylsulfonyl)propanamide], the IC50 under setting [1] was above 50 µM.
Regarding `O=C(O)CCc1ccc(I)c(Oc2ccc(O)cc2)c1I` [MLAF-050, 3-(3-(4-Hydroxyphenoxy)-2,4-diiodophenyl)propanoic acid], under setting [1], the IC50 worked out at 19 µM.
On to `CCCCCNC(=O)Cc1cc(I)c(Oc2ccc(O)c(I)c2)c(I)c1` [MLAE-029-9, 2-(4-(4-Hydroxy-3-iodophenoxy)-3,5-diiodophenyl)-N-pentylacetamide], for which the IC50 under setting [1] is above 50 µM.
Still for that read-out and setting: under `COCCNC(=O)CCc1cc(I)c(Oc2ccc(O)cc2)c(I)c1` [MLAE-051-1, 3-(4-(4-Hydroxyphenoxy)-3,5-diiodophenyl)-N-(2-methoxyethyl)propanamide] stands 4.9 µM; under `O=C(Cc1cc(I)c(Oc2ccc(O)c(I)c2)c(I)c1)NC1CCCCC1` [MLAE-029-2, N-Cyclohexyl-2-(4-(4-hydroxy-3-iodophenoxy)-3,5-diiodophenyl)acetamide], above 50 µM; under `NC(=O)Cc1cc(I)c(Oc2ccc(O)c(I)c2)c(I)c1` [MLAG-088, 2-(4-(4-Hydroxy-3-Iodophenoxy)-3,5-diiodophenyl)acetamide], 6.6 µM.
Take `NCc1cc(I)c(Oc2ccc(O)cc2)c(I)c1` [MLAG-082, 4-(4-(aminomethyl)-2,6-diiodophenoxy)phenol]: the concentration for half-maximal inhibition (IC50) under setting [1] amounted to 1.6 µM.
Take `O=C(CCc1cc(I)c(Oc2ccc(O)c(C(=O)NCc3ccccc3)c2)c(I)c1)NCCO` [MLAF-008, N-Benzyl-2-hydroxy-5-(4-(3-((2-hydroxyethyl)amino)-3-oxopropyl)-2,6-diiodophenoxy)benzamide]: the IC50 under setting [1] was determined as 0.4 µM.
For `O=C1CN(C(=O)CCc2cc(I)c(Oc3ccc(O)cc3)c(I)c2)CCN1` [MLAE-034, 4-(3-(4-(4-hydroxyphenoxy)-3,5-diiodophenyl)propanoyl)piperazin-2-one], the IC50 under setting [1] was above 50 µM.
For `N[C@H](CNC(=O)CO)Cc1cc(I)c(Oc2ccc(O)cc2)c(I)c1` [MLAF-083, (S)—N-(2-amino-3-(4-(4-hydroxyphenoxy)-3,5-diiodophenyl)propyl)-2-hydroxyacetamide], under setting [1], the IC50 is 1.4 µM.
As for `Cc1cc(Oc2c(I)cc(C[C@H](N)CO)cc2I)ccc1O` [MLAG-093, (S)-4-(4-(2-amino-3-hydroxypropyl)-2,6-diiodophenoxy)-2-methylphenol], the IC50 under setting [1] came out at 1.8 µM.
Same read-out and setting: under `Cc1cc(CCC(=O)O)cc(C)c1Oc1ccc(O)cc1` [NF021111, 3-(4-(4-hydroxyphenoxy)-3,5-dimethylphenyl)propanoic acid] stands above 50 µM.
As for `CCCOCCNC(=O)CCc1cc(I)c(Oc2ccc(O)cc2)c(I)c1` [MLAE-054-3, 3-(4-(4-Hydroxyphenoxy)-3,5-diiodophenyl)-N-(2-propoxyethyl)propanamide], under setting [1], the IC50 came to 8.3 µM.
Same read-out and setting: to `CS(=O)(=O)NC(=O)Cc1cc(I)c(Oc2ccc(O)cc2)c(I)c1` [MLAE-049, 2-(4-(4-Hydroxyphenoxy)-3,5-diiodophenyl)-N-(methylsulfonyl)acetamide] belongs 9.1 µM; to `COc1ccc(Oc2c(I)cc(CC(=O)NS(C)(=O)=O)cc2I)cc1` [MLAE-046, 2-(3,5-Diiodo-4-(4-methoxyphenoxy)phenyl)-N-(methylsulfonyl)acetamide], above 50 µM; to `N[C@H](CO)Cc1cc(I)c(Oc2ccc(O)c(I)c2)c(I)c1` [MLAG-083, (S)-4-(4-(2-amino-3-hydroxypropyl)-2,6-diiodophenoxy)-2-iodophenol], 0.6 µM.
On to `CS(=O)(=O)NC(=O)CCc1cc(I)c(Oc2ccc(O)c(C(=O)NCc3ccccc3)c2)c(I)c1` [MLAF-013, N-Benzyl-5-(2,6-diiodo-4-(3-(methylsulfonamido)-3-oxopropyl)phenoxy)-2-hydroxybenzamide], for which, under setting [1], the IC50 was determined as 1.4 µM.
For the compound “SAVLQKKITDYFHPKK [PL peptide, reference compound]”, the IC50 (unlabeled PL-peptide against tagged PL-peptide, data not shown, read-out: IC50 in self-competition) was around 0.1 µM.
As to `CCS(=O)(=O)N1CCN(C(=O)CCc2cc(I)c(Oc3ccc(O)cc3)c(I)c2)CC1` [MLAE-051-3, 1-(4-(Ethylsulfonyl)piperazin-1-Yl)-3-(4-(4-hydroxyphenoxy)-3,5-diiodophenyl)propan-1-one], the IC50 under setting [1] worked out at 2.7 µM.
Still for that read-out and setting: to `O=C1NC[C@H](Cc2cc(I)c(Oc3ccc(O)cc3)c(I)c2)N1` [MLAG-060, (S)-4-(4-(4-hydroxyphenoxy)-3,5-diiodobenzyl)imidazolidin-2-one] belongs 5.7 µM.
Take `O=S(=O)(N[C@H](CO)Cc1cc(I)c(Oc2ccc(O)cc2)c(I)c1)c1ccc(O)cc1` [MLAE-060, (S)-4-Hydroxy-N-(1-hydroxy-3-(4-(4-hydroxyphenoxy)-3,5-diiodophenyl)propan-2-yl)benzenesulfonamide]: under setting [1], the IC50 was 32 µM.
On to `O=C(Cc1cc(I)c(Oc2ccc(O)c(I)c2)c(I)c1)NCc1ccccc1` [MLAE-029-4, N-Benzyl-2-(4-(4-hydroxy-3-iodophenoxy)-3,5-diiodophenyl)acetamide], for which, under setting [1], the IC50 was above 50 µM.
Same read-out and setting: under `CCCCCCNC(=O)NC[C@@H](N)Cc1cc(I)c(Oc2ccc(O)cc2)c(I)c1` [MLAF-086, (S)-1-(2-amino-3-(4-(4-hydroxyphenoxy)-3,5-diiodophenyl)propyl)-3-hexylurea] stands 1.3 µM.
For `COc1ccc(S(=O)(=O)N[C@H](CO)Cc2cc(I)c(Oc3ccc(O)cc3)c(I)c2)cc1` [MLAE-058-3, (S)—N-(1-Hydroxy-3-(4-(4-hydroxyphenoxy)-3,5-diiodophenyl)propan-2-yl)-4-methoxybenzenesulfonamide], the IC50 under setting [1] stood at 9.7 µM.
With `O=S(=O)(N[C@H](CO)Cc1cc(I)c(Oc2ccc(O)cc2)c(I)c1)c1ccccc1` [MLAE-058-2, (S)—N-(1-Hydroxy-3-(4-(4-hydroxyphenoxy)-3,5-diiodophenyl)propan-2-yl)benzenesulfonamide], under setting [1], the IC50 turned out to be 6 µM.
